Reference: PMC9729826, “Hypoaminoacidemia underpins glucagon-mediated energy expenditure and weight loss” (Cell Reports Medicine, 2022)
Starred links: 1 amine or outer side, 2 acyl side, 3 side chain; linkers in the order of their positions; H or OH if unused. Non-standard residues stand in square brackets, D forms with d. Residues, ends and D or L forms follow the SMILES beside them. Groups on a side chain read outwards from the residue. *: point of attachment. C18 diacid = O=C(O)CCCCCCCCCCCCCCCCC(=O)*; γGlu = O=C(O)[C@H](CCC(=O)[*:2])N[*:1]; Aib = CC(C)(N)C(=O)O

Columns and labels:
[1] = test system: diet-induced obese (DIO) C57BL/6 mice; test: Chronic low-dose (7.5 nmol/kg) G108 study in DIO mice on SP or HP diet; type: in vivo, mouse; conditions: 7.5 nmol/kg s.c. daily
Source text: Lean 10-week-old C57BL/6 mice (N = 27) were provided ad libitum a 60 kcal% high fat diet (diet D12492, Table S2) for 12 weeks prior to the start of the study. The cohort of mice were individually housed and divided into three treatment groups, based on treatment and diet allocation: Vehicle/High fat, Standard protein diet (SP) (N = 9), 7.5 nmol/kg G108/SP diet (N = 9) and 7.5 nmol/kg G108/High fat, High protein diet (HP) (N = 9). The high fat, standard protein diet (SP diet) (D08091803) and high fat, high protein diet (HP diet) (D08091801) are detailed in Table S2. All mice had ad libitum access to water and their allocated diets. Mice were subcutaneously administered with their respective treatments at 9 am each day for 27 days. Food intake, water intake and body weight were measured using the same weighing scale each morning prior to vehicle or G108 administration. EchoMRI was carried out at baseline, day 14 and day 25. Tail venesection was carried out on day 13 of the study immediately pre-treatment. 40–50 μL of blood was collected and immediately transferred on ice, centrifuged at 2800 × g for 10 min prior to analysis for total and individual plasma amino acids. A glucose tolerance test was carried out on day 15 of the study following a 5 h fast as described below. Forelimb grip strength testing was performed at baseline and day 25 of the study. After 20 days, all groups were placed into metabolic cages, single housed for 72 h, as described below. After 72 h, all groups were removed from the metabolic cages and returned to their home cages. Following a 4 h fast on day 27 all mice were culled, with the following tissues dissected and snap frozen in liquid nitrogen prior to storage at −80°C: gastrocnemius, quadriceps, brown adipose tissue (BAT) and liver. Terminal blood was also collected and transferred on ice immediately for centrifugation as previously described and storage at −80°C.
Food intake was measured daily using a dedicated weighing scale and topped up accordingly. Body weight was recorded at 9 am daily or every 48 h using the same weighing scale. Body composition was measured using an EchoMRI analyser at various timepoints during chronic studies. Body composition measurements were taken on the same time of day to reduce intra-animal variability. Animals were placed in a transparent cylindrical Perspex tube and both ends secured with Perspex clips. The tubes containing the animal was then carefully placed into the MRI machine (EchoMRI −100H analyser, EchoMRI). Each scan lasted approximately 90 s where lean mass and fat mass were recorded in grams. Following the scan, the mice were removed from the Perspex tube and returned to their respective cages.
For glucose tolerance tests, following a 5 h fast and administration of peptide or vehicle treatment, mice were administered with glucose by intraperitoneal injection at a dose of 2 g/kg body weight. Tail vein blood samples were taken at baseline, 20, 40, 60 and 90 min and glucose measured (mmol/L) using a handheld GlucoRx monitor (GlucoRx, UK).
To measure energy expenditure, DIO mice were placed into a Comprehensive Laboratory Animal Monitoring System (CLAMS, Columbus instruments, Columbus, US). Measurement of oxygen consumption and carbon dioxide production was taken at 20 min intervals. Food intake was also measured electronically without the need to remove food. Each cohort of mice were placed into the CLAMS system with daily weighing of body weight prior to administration of the allocated treatment at 9 am. Following administration of treatment, mice were placed back into the metabolic cages with ad libitum access to their allocated diet. For studies with the low amino acid (LAA) diet in metabolic cages, animals were not removed from the metabolic cages until the end of the experiment and had ad libitum access to either standard protein or low amino acid diets. Feed efficiency was calculated as mg body weight change per kJ consumed. […]

C57BL/6 mice = test: Single-dose G108 EE and plasma amino acid study in metabolic cages; type: in vivo, mouse; conditions: for plasma total amino acids after a single injection / energy expenditure after a single injection: mice on SP diet
Method: Lean 10-week-old C57BL/6 mice (N = 20) were provided ad libitum a 60 kcal% high fat diet (diet D12492, Table S2) for 10 days. They were then switched to either a standard protein high fat diet (D08091803) or a high protein high fat diet (D08091801) (N = 10/group) for 1 week prior to commencing the study. All mice were then placed into metabolic cages, individually housed, and allowed to acclimatise for 24 h. On day 2, baseline metabolic readings were obtained prior to single dose administration of 7.5 nmol/kg G108 on day 3 at 9 am. Metabolic readings were subsequently obtained over the following 48 h prior to single dose administration of 20 nmol/kg G108 on day 5. On day 8, all mice were removed from the metabolic cages and returned to their home cages. A parallel study was then carried out whereby venous blood samples were collected at baseline and daily following single dosing with either 7.5 nmol/kg or 20 nmol/kg G018. Blood samples were transferred on ice immediately for centrifugation as previously described. Samples were stored at −80°C prior to measurement of plasma total amino acids.
To measure energy expenditure, DIO mice were placed into a Comprehensive Laboratory Animal Monitoring System (CLAMS, Columbus instruments, Columbus, US). Measurement of oxygen consumption and carbon dioxide production was taken at 20 min intervals. Food intake was also measured electronically without the need to remove food. Each cohort of mice were placed into the CLAMS system with daily weighing of body weight prior to administration of the allocated treatment at 9 am. Following administration of treatment, mice were placed back into the metabolic cages with ad libitum access to their allocated diet. For studies with the low amino acid (LAA) diet in metabolic cages, animals were not removed from the metabolic cages until the end of the experiment and had ad libitum access to either standard protein or low amino acid diets. Feed efficiency was calculated as mg body weight change per kJ consumed.
Plasma total amino acids were measured using fluorometric-based ELISA kits as described (MAK002, Sigma-Aldrich, Ab65347, Abcam). Plasma FGF21 was measured using a fluorescent based ELISA kit (ab229382, Abcam). Plasma triglyceride, cholesterol and leptin were measured using ELISA kits (ab65336, ab65390, ab199082, Abcam). Individual amino acids were measured using Gas Chromatography/Mass Spectrometry (WellChild laboratory, Evelina Children’s Hospital, St Thomas’s Hospital, London).

CC[C@H](C)[C@H](NC(=O)[C@H](Cc1ccccc1)NC(=O)[C@H](CCC(=O)O)NC(=O)[C@H](CCC(N)=O)NC(=O)[C@H](C)NC(=O)[C@H](CCCNC(=N)N)NC(=O)[C@H](CCCCN)NC(=O)[C@H](C)NC(=O)[C@H](CC(=O)O)NC(=O)[C@H](CC(C)C)NC(=O)[C@H](Cc1ccc(O)cc1)NC(=O)[C@H](CCCNC(=N)N)NC(=O)[C@H](CO)NC(=O)[C@H](Cc1ccc(O)cc1)NC(=O)[C@H](CC(=O)O)NC(=O)[C@H](CO)NC(=O)[C@@H](NC(=O)[C@H](Cc1ccccc1)NC(=O)[C@@H](NC(=O)CNC(=O)[C@H](Cc1c[nH]cn1)NC(=O)C(C)(C)NC(=O)[C@@H](N)Cc1c[nH]cn1)[C@@H](C)O)[C@@H](C)O)C(=O)N[C@@H](CCC(=O)O)C(=O)N[C@@H](Cc1c[nH]c2ccccc12)C(=O)N[C@@H](CC(C)C)C(=O)N[C@@H](CC(C)C)C(=O)N[C@@H](CCC(N)=O)C(=O)N[C@@H](CO)C(=O)N[C@@H](Cc1c[nH]cn1)C(=O)N[C@@H](Cc1c[nH]cn1)C(=O)N[C@@H](CCC(N)=O)C(=O)N[C@@H](Cc1c[nH]cn1)C(=O)N[C@@H](Cc1c[nH]cn1)C(=O)N1CCC[C@H]1C(=O)N[C@@H](CO)C(=O)N1CCC[C@H]1C(=O)N1CCC[C@H]1C(=O)N1CCC[C@H]1C(=O)N[C@@H](CCCCNC(=O)[C@H](CC(N)=O)NC(=O)CC[C@H](NC(=O)CCCCCCCCCCCCCCCCC(=O)O)C(=O)O)C(N)=O [Peptide G108] (H-H[Aib]HGTFTSDYSRYLDAKRAQEFIEWLLQSHHQHHPSPPPK([Asn-γGlu-C18 diacid])-NH2; N-terminus and C-terminus assumed)
food intake ([1]; 27 days): did not affect food intake
body weight on high protein (HP) diet ([1]; 27 days, HP diet (40 kcal% protein) versus SP diet, n = 9/group): sufficient to prevent chronic G108-mediated weight loss
lean mass and grip strength on HP diet ([1]; HP diet, less pronounced over the course of the study): blunted the reduction in lean mass and grip strength
energy expenditure (EE) in metabolic cages ([1]; after 20 days, CLAMS, SP and HP diets, n = 7-8/group): increased EE on a standard protein (SP), but not HP, diet
individual plasma amino acids ([1]; day 13, SP diet, GC/MS, n = 5/group): reduced the plasma abundance of most amino acids
plasma total cholesterol ([1]; day 14, both SP and HP diets, n = 9/group): improvement in plasma cholesterol
plasma total triglyceride ([1]; day 14, n = 9/group): no change in plasma triglycerides
glucose tolerance (intraperitoneal glucose tolerance test, 2 g/kg) ([1]; day 15, SP and HP diets, n = 9/group): remarkably efficient at improving glucose tolerance
fat mass on standard protein (SP) diet ([1]; days 14 and 25, SP diet, prevented by HP diet): marked reduction in fat mass
induction of hepatic amino acid catabolic pathways on HP diet ([1]; liver qPCR, n = 5-6/group): not prevented by the HP diet
hepatic lipid content (oil red O staining) ([1]; terminal (day 27), both SP and HP diets): highly effective at clearing liver fat
plasma total amino acids after a single injection (C57BL/6 mice; single 7.5 nmol/kg dose, n = 10/group): transient reduction in plasma amino acids
energy expenditure after a single injection (C57BL/6 mice; single 7.5 nmol/kg dose, up to 48 h, n = 10/group): trend toward increased EE
plasma total amino acids after a single injection (C57BL/6 mice; single 20 nmol/kg dose, n = 9-10/group): sustained reduction in plasma amino acids
energy expenditure after a single injection (C57BL/6 mice; single 20 nmol/kg dose, up to 72 h, n = 9-10/group): significantly increased EE response
hypoaminoacidemia and EE in mice fed the HP diet (C57BL/6 mice; single 7.5 and 20 nmol/kg doses, HP diet): protected against G108-stimulated hypoaminoacidemia and EE at both doses
